Data on twelve compounds can be found in ChEMBL document CHEMBL4428116, “Synthesis, molecular modeling and SAR study of novel pyrazolo[5,1-f][1,6]naphthyridines as CB2 receptor antagonists/inverse agonists” (Bioorg Med Chem, 2016).

Usually Ki stands for the equilibrium dissociation constant of an inhibitor or competing ligand from its target. Low values mean tighter binding, high ones weaker binding. The term Kb denotes the affinity of an antagonist, worked out from how it opposes an agonist.

The source made the active and inactive calls. The rule behind the calls is not given here. Where only a bound is given, the exact number is not on record here.

One experiment deals with Cannabinoid receptor 1 (Homo sapiens, UniProt P21554). Briefly: Displacement of [3H]CP-55,940 from human CB1 receptor expressed in CHO cell membrane after 90 mins by scintillation counting method. The experiment is classed as cell membranes.
The target of experiment [1] is T1, Cannabinoid receptor 2 (Homo sapiens, UniProt P34972). Briefly: Displacement of [3H]CP-55,940 from human CB2 receptor expressed in CHO cell membrane after 60 mins by scintillation counting method. The experiment is classed as cell membranes. A general note: Loss of bound radioactivity is the signal in a displacement assay; it reports binding, not function.
The species entered for the next experiment is Homo sapiens. Briefly: Selectivity ratio of Ki for human CB1 receptor expressed in CHO cell membrane to Ki for human CB2 receptor expressed in CHO cell membrane. The experiment is classed as cell-based.
Experiment [2] has as its target T1, Cannabinoid receptor 2. Briefly: Antagonist activity at human CB2 receptor expressed in CHO cells assessed as inhibition of WIN 55,212-2-induced reduction in forskolin-stimulated cAMP accumulation by immunoassay. The experiment is classed as functional, cell-based. Background: Cyclic AMP is a second messenger, typically raised through Gs and lowered through Gi signalling.

Experiment [3] concerns the target T1, Cannabinoid receptor 2. Briefly: Antagonist activity at human CB2 receptor expressed in CHO cells assessed as inhibition of WIN 55,212-2-induced reduction in forskolin-stimulated cAMP accumulation by Schild plot analysis. The experiment is classed as functional, cell-based.
The target of experiment [4] is T1, Cannabinoid receptor 2. Briefly: Inverse agonist activity at human CB2 receptor expressed in CHO cells assessed as increase in forskolin-stimulated cAMP production at 0.1 uM by immunoassay. The experiment is classed as functional, cell-based.
For experiment [5], the target named is T1, Cannabinoid receptor 2. Nature of the experiment: Antagonist activity at human CB2 receptor expressed in CHO cells assessed as inhibition of WIN 55,212-2-induced reduction in forskolin-stimulated cAMP accumulation at 0.1 to 10 uM by immunoassay. The experiment is classed as functional, cell-based.
For experiment [6], the target named is T1, Cannabinoid receptor 2. Nature of the experiment: Inverse agonist activity at human CB2 receptor expressed in CHO cells assessed as increase in forskolin-stimulated cAMP production at 1 to 10 uM by immunoassay. The experiment is classed as functional, cell-based.
The species entered for another experiment is Mus musculus. Nature of the experiment: Selectivity ratio of Ki for CB1 receptor in CD-1 mouse cerebellum membrane to Ki for CB2 receptor in CD-1 mouse spleen homogenate. The experiment is classed as cell membranes.

Chain of Cannabinoid receptor 1 (P21554 whole entry): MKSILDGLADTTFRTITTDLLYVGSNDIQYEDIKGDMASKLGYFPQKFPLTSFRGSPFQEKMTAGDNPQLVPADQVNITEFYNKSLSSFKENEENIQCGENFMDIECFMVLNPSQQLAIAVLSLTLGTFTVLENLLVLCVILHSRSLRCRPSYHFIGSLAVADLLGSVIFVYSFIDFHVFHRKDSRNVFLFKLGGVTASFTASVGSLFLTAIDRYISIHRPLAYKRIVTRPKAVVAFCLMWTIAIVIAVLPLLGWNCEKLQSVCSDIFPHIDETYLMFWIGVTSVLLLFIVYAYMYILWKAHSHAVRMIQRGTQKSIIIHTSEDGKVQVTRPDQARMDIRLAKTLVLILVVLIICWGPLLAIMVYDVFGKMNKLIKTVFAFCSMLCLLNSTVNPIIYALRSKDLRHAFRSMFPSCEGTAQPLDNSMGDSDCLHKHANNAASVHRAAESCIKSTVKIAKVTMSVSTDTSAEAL
T1 sequence (P34972 whole entry): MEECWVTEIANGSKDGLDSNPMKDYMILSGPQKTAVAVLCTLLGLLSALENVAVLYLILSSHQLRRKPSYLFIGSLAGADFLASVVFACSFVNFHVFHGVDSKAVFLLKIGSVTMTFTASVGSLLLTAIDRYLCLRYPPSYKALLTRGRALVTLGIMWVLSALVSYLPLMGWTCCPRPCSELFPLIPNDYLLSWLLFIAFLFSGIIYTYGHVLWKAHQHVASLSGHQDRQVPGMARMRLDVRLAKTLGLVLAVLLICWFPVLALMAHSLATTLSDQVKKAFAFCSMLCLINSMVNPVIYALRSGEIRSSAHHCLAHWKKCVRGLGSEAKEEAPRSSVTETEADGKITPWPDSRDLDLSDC

Turning to `Cc1ccc(-c2cc3ncccc3c3cc(C(=O)NC45CC6CC(CC(C6)C4)C5)nn23)cc1`, the Ki on Cannabinoid receptor 1 turned out to be 5700 nM; at Cannabinoid receptor 2 [1], 33 nM. For the same compound, the Ratio Ki in the experiment filed under Homo sapiens was found to be 173. Further, the inhibition result at Cannabinoid receptor 2 [2] was “Dose-dependent effect”. In addition, the antagonist dissociation constant (Kb) on Cannabinoid receptor 2 [3] was found to be 316 nM. The outcome at Cannabinoid receptor 2 [4] was Active.
Turning to `Cc1ccc(-c2cc3ncccc3c3cc(C(=O)N[C@@H]4C[C@H](C)CC[C@H]4C(C)C)nn23)cc1`, the Ki worked out at 3300 nM on Cannabinoid receptor 1 and 280 nM on Cannabinoid receptor 2 [1]. In the experiment filed under Homo sapiens, the Ratio Ki was found to be 12.
Take `Cc1ccc(-c2cc3ncccc3c3cc(C(=O)NN4CCCCC4)nn23)cc1`: the Ki at Cannabinoid receptor 1 was > 10000 nM; on Cannabinoid receptor 2 [1], > 1000 nM.
As for `Cc1ccc(-c2cc3ncccc3c3cc(C(=O)NC4CCCCC4)nn23)cc1`, the Ki was > 10000 nM on Cannabinoid receptor 1 and 2130 nM on Cannabinoid receptor 2 [1]. In the experiment listed under Homo sapiens, the Ratio Ki was > 4.7.
`CC1=C(C(=O)c2cccc3ccccc23)C2C=CC=C3OC[C@@H](CN4CCOCC4)N1C32` (stereo partly specified): the Ki on Cannabinoid receptor 1 was 13 nM. For the same compound, the Ratio Ki in the experiment listed under Homo sapiens stood at 5.2.
Consider `Cc1ccc(-c2cc3ncccc3c3cc(C(=O)NC4C5CC(C[C@@H]4C)C5(C)C)nn23)cc1` (stereo partly specified), for which the Ki was > 10000 nM at Cannabinoid receptor 1 and 240 nM at Cannabinoid receptor 2 [1]. In addition, the Ratio Ki in the experiment filed under Homo sapiens was > 42.
Consider `Cc1ccc(-c2cc3ncccc3c3cc(C(=O)N[C@H]4CC5CCC4(C)C5(C)C)nn23)cc1` (stereo partly specified), for which the Ki at Cannabinoid receptor 1 stood at 7000 nM; at Cannabinoid receptor 2 [1], 53 nM. In the experiment filed under Homo sapiens, the Ratio Ki turned out to be 132. In addition, the inhibition result at Cannabinoid receptor 2 [5] was “Active”. The antagonist equilibrium constant (Kb) at Cannabinoid receptor 2 [3] came to 505 nM. Also, at Cannabinoid receptor 2 [6], the outcome was Active.
With `Cc1ccc(-c2cc3ncccc3c3cc(C(=O)N[C@H]4C5(C)CCC(C5)C4(C)C)nn23)cc1` (stereo partly specified), the inhibition constant Ki at Cannabinoid receptor 1 came to 2200 nM; on Cannabinoid receptor 2 [1], 800 nM. Further, in the experiment filed under Homo sapiens, the Ratio Ki was found to be 2.7.
Taken in the same sequence, the figures for `Cc1ccc(-c2cc3ncccc3c3cc(C(=O)NC4C5CC6CC(C5)CC4C6)nn23)cc1` (stereo unspecified) were > 10000 nM, 133 nM and > 75.
`CC1(C)C2CC[C@@H](CNC(=O)c3cc4c5cccnc5cc(-c5ccc(Cl)cc5Cl)n4n3)C1C2` (stereo partly specified): the inhibition constant Ki on Cannabinoid receptor 1 is > 10000 nM; on Cannabinoid receptor 2 [1], 67 nM. In addition, the Ratio Ki in the experiment listed under Homo sapiens was > 149. The inhibition entry on Cannabinoid receptor 2 [5] was “Active”. The antagonist dissociation constant (Kb) at Cannabinoid receptor 2 [3] stood at 650 nM. In addition, on Cannabinoid receptor 2 [6], the outcome was Active.
`Cc1ccc(-c2cc3ncccc3c3cc(C(=O)NC[C@@H]4CCC5CC4C5(C)C)nn23)cc1` (stereo partly specified): the inhibition constant (Ki) at Cannabinoid receptor 1 was > 10000 nM; at Cannabinoid receptor 2 [1], 120 nM. In addition, in the experiment listed under Homo sapiens, the Ratio Ki is > 83.
For the compound `Cc1ccc2c(c1)Cc1c(C(=O)NN3CCCCC3)nn(-c3ccc(Cl)cc3Cl)c1-2`, the Ratio Ki in the experiment listed under Mus musculus was 9810.
